According to US11866712B2, “System based on the reassembly of GFP for studying the trans-translational activity and identifying new antibiotics” (UNIVERSITE DE RENNES 1, priority 2018, dated 2024):
“Also recorded” adds a separate entry of the source.

Key:
[1] = test system: trans-translation; assay: in vitro trans-translation assay (PURExpress kit, tmRNAGFP11, SmpB, sfGFP1-10 nonstop; GFP fluorescence); type: biochemical, Escherichia coli; settings: concentration of 10 μM; FIG. 3(B)
Description: (§1) In order to evaluate the tmRNA labeling activity in vitro, the present inventors used a reconstituted cell-free protein synthesis system (PURE for Protein Synthesis Using Recombinant Elements) (Shimizu et al., Nature Biotechnol., 2001, 19(8): 751-755). The experiments were carried out using the PURExpress® commercial kit (sold by New England Biolabs) containing all the purified components of Escherichia coli that are required to carry out both the transcription and the translation. In order to convert this kit into an in vitro fluorescent trans-translation system, the inventors added the components required for the trans-translation: tmRNAGFP11, the SmpB protein, and a non-stop DNA sequence encoding the first 10 domains of sfGFP (see Materials and Methods section).
Translation and trans-translation assays. The in vitro translation reactions were carried out according to the recommendations of New England Biolabs. The in vitro trans-translation assays were carried out in various steps using the PURExpress® protein synthesis kit (New England Biolabs). […]
Analysis by fluorescence. After overnight incubation at 37° C., the reaction volume was adjusted to 125 μL and transferred into a cuvette for analysis by fluorescence using an LS 55 fluorescence spectrometer (Perkin Elmer). The fluorescence intensity at 510 nm of the trans-translated sfalaGFP was determined using an excitation at 485 nm. […]

[2] = test system: translation; settings: known from Ramadoss et al., PNAS USA, 2013; cited from earlier work
[3] = test system: transcription and translation; assay: in vitro translation control: production of fluorescent sfalaGFP from PCR product in PURExpress kit; type: biochemical, Escherichia coli; settings: KKL-35 10 μM added to the sfalaGFP PCR product; FIG. 3(A)
Description: as §1
Translation and trans-translation assays. The in vitro translation reactions were carried out according to the recommendations of New England Biolabs. […]
Analysis by fluorescence. After overnight incubation at 37° C., the reaction volume was adjusted to 125 μL and transferred into a cuvette for analysis by fluorescence using an LS 55 fluorescence spectrometer (Perkin Elmer). The fluorescence intensity at 510 nm of the trans-translated sfalaGFP was determined using an excitation at 485 nm.
The inventors first of all confirmed that there was no fluorescence generated by the components of the PURExpress® kit (see FIG. 3). […]

O=C(Nc1nnc(-c2ccc(F)cc2)o1)c1ccc(Cl)cc1 [KKL-35]
activity against the trans-translation [1]: slight activity | anti-translation activity [2]: strong | inhibition of transcription and of translation (anti-transcription and anti-translation activity) [3]: No inhibition; also recorded: absence
